Laboratory results as given in patent US11478440B2, “Combination of Elafibranor or derivatives thereof with an anti-NASH, anti-fibrotic or anti-cholestatic agent” (GENFIT, priority 2017, dated 2022).

How the values were obtained:
[1] = test system: TGFβ1-induced hHSC; assay: α-SMA ELISA in TGFβ1-induced human primary hepatic stellate cells; type: cell-based
Experimental: (§1) The human primary hepatic stellate cells (hHSC) (Innoprot) were cultured in STeCM medium (ScienCell cat #5301) that was supplemented with 2% fetal bovine serum (FBS, ScienCell cat #0010), 1% penicillin/streptomycin (ScienCell cat #0503) and stellate cell growth supplement (SteCGS; ScienCell cat #5352). Cell culture flasks were coated with Poly-L Lysine (Sigma cat #P4707) for a better adherence.
For these experiments, a checkerboard matrix was generated. ELA and component (ii) stocks were serially diluted in DMSO in 5-points series in a row (ELA) and a 11-points series in a column (component (ii)) of a 96-well plate. Subsequently, the 5×11 combination matrix was generated by 1:1 mixing of all single agent concentrations. The test concentrations for each compound were chosen based on the respective IC50 of each compound as single agent obtained by measuring α-SMA content in the HSC model stimulated with TGF-β1.
The human primary hepatic stellate cells (hHSC) (Innoprot) were cultured under standard conditions, as described above. The cells were subsequently plated at a density of 2×10^4 cells/well into 96-well plates for the measure of α-SMA by ELISA. The next day, cell-culture medium was removed, and cells were washed with PBS (Invitrogen cat #14190). hHSC were deprived for 24 hours in serum-free and SteCGS-free medium. For the treatments with ELA, component (ii) and the respective ELA/component (ii) combinations, the serum-deprived hHSC were preincubated for 1 hour with the compounds followed by addition of the profibrogenic stimuli TGF-β1 (PeproTech cat #100-21, 1 ng/mL) in serum-free and SteCGS-free medium for an additional 48 hour period.
The level of α-SMA was measured using a Sandwich ELISA. Briefly, the wells of an ELISA plate were first coated with the capture antibody (mouse monoclonal anti-ACTA2, Abnova) at 4° C. overnight. After 3 washes in PBS+0.2% Tween 20, a blocking solution consisting of PBS+0.2% BSA was added for one hour followed by another washing cycle. The cell lysates were transferred into the wells for binding to the capture antibody for a period of 2 h at room temperature. After the washing procedure, the detection antibody (biotinylated mouse monoclonal anti-ACTA2, Abnova) was added for 2 hours at room temperature followed by 3 washes. For the detection, an HRP-conjugated Streptavidin (R&D Systems cat #DY998) was first applied for 30 min at room temperature. After washing, the HRP substrate TMB (BD, #555214) was added and incubated for 7 min at room temperature in the dark. Upon oxidation, TMB forms a water-soluble blue reaction product that becomes yellow with addition of sulfuric acid (solution stop), enabling accurate measurement of the intensity at 450 nm using a spectrophotometer. The developed color is directly proportional to the amount of α-SMA present in the lysate.
as §1, with “Cell-culture” for “Cell culture”
For these experiments, a checkerboard matrix was generated. CVC and Elafibranor stocks were serially diluted in DMSO in a 5-points series in a row (Elafibranor) and a 6-points series in a column (Cenicriviroc) of a 96-well plate. Subsequently, the […] combination matrix was generated by 1:1 mixing of all single agent concentrations. The test concentrations for each compound were chosen based on the respective IC50 of each compound as single agent obtained by measuring α-SMA content in the HSC model stimulated with TGF-β1.
The human primary hepatic stellate cells (hHSC) (Innoprot) were cultured under standard conditions, as described above. […]

[2] = test system: HepG2; assay: Intracellular lipid droplets (AdipoRed) in fat-loaded HepG2; type: cell-based, human; settings: elafibranor 10 μM alone; FFA-treated
Experimental: The human hepatocyte carcinoma were cultured in DMEM 4.5 g/L glucose (Gibco cat #31053 that was supplemented with 10% fetal bovine serum (FBS, Gibco cat #10270), 1% penicillin/streptomycin (Gibco cat #15140), 1% MEM NEAA (Gibco cat #11140), 1% L-Glutamine (Gibco cat #25030), and 1% Sodium Pyruvate (Gibco cat #11360).
For these experiments, a checkerboard matrix was generated. ELA and component stocks were serially diluted in DMSO in 5-points series in a row (ELA) and a 11-points series in a column (component) of a 384-well plate. Subsequently, the 5×11 combination matrix was generated by 1:1 mixing of all single agent concentrations.
Oleic (#O1383) and palmitic (P0500) acids were purchased at Sigma. FFA stock solutions (100 mM) were prepared in 0.1M NaOH at 80° C. Working solutions of 4.5 mM palmitate/10% bovine serum albumin (BSA) and 9 mM oleate/10% BSA were prepared by complexing an appropriate volume of stock solution to 10% BSA (FFA-free low endotoxin; Sigma-Aldrich, Bornem, Belgium) in a 55° C. water bath (15 min). […]
To measure intracellular lipid droplets content, the cells were brought to room temperature and washed with 40 μL PBS. […] The relative fluorescence was measured (k excitation at 485 nm, k emission at 580 nm) using a fluorescence spectrometer (Spark Tecan cat #30086376 SN #1801002745). […]

[3] = test system: NASH; settings: over 800 patients and healthy volunteers; cited from earlier work
[4] = up to 2-year carcinogenicity studies; cited from earlier work

Question: For “1-[4-methylthiophenyl]-3-[3,5-dimethyl-4-carboxydimethylmethyloxyphenyl]prop-2-en-1-one [Elafibranor]”, which “α-SMA inhibition over TGFβ1 control” value ([1]; 5 μM of Elafibranor alone) is on record?
Answer: Its value is 40%.

Question: What about the IC50 ([1]; TGFβ1 1 ng/ml, 48 h, single agent) of the same substance?
Answer: The IC50 was 3.17 µM.

Question: And the α-SMA marker reduction ([1]; TGFβ1 1 ng/ml, 48 h, single agent, maximal reduction)?
Answer: The α-SMA marker reduction was 80%.

Question: What about the “antifibrotic activity (α-SMA), single agent” value ([1]; TGFβ1-activated hHSC, dose range) of the same substance?
Answer: The value was “has an antifibrotic activity”.

Question: And the “reduction of fat accumulation” value [2]?
Answer: Its value is 20%.

Question: And the “clinical properties for NASH (liver markers, insulin sensitivity, plasma lipids, anti-inflammatory)” value [3]?
Answer: The value was “has demonstrated beneficial properties for NASH”.

Question: What about the safety concern [4] of the same substance?
Answer: The safety concern was “absence of safety concern”.
